From US11472769B2, “SSAO inhibitors and use thereof” (Eccogene (Shanghai) Co., Ltd., priority 2019, dated 2022) come the findings set out here.

Series [1] in a line: Brain Kpuu assay (BBB assay and protein binding assay). The format is in vivo. The following applies: ICR mice, 1 mg/kg IV, plasma and brain collected at 5 minutes after dosing; for Kp uu at 5 min: mouse, read-out: Kpuu (mouse, t = 5 min). The protocol:
For example, Brain Kpuu assay composed of Blood-Brain-Barrier (BBB) assay and protein binding assay, can be utilized. The protein binding assay comprises equilibrium dialysis against brain lysate and plasma to calculate fu(brain) and fu(plasma), respectively. The BBB assay can be conducted in experimental animals at 1 mg/kg IV dosage. After dosing with the compounds of the present application, plasma and brain samples can be collected to analyze compound concentration (Cplasma and Cbrain). The Kpuu value of the tested compounds can be calculated by the equation: […]
Brain Kpuu assay is composed of Blood-Brain-Barrier (BBB) assay and protein binding assay, which are conducted in ICR mice. Protein binding assays were performed in 96-well plates, using equilibrium dialysis against brain lysate and plasma to calculate fu(brain) and fu(plasma), respectively. BBB assays were conducted in mice at 1 mg/kg IV dosage. Plasma and brain samples were collected at 5 minutes after dosing to analyze compounds concentration (Cplasma and Cbrain). The Kpuu value of the tested compounds was calculated by the equation: […]

Series [2] has as its target recombinant hMAO-A (Homo sapiens (Human), UniProt P21397). Put plainly: MAO-A activity assay (MAO-Glo assay kit). The format is biochemical. The following applies: 40 μM substrate, 30 mins pre-incubation. An outline of the steps: (§1)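 Recombinant human enzymes were pre-incubated 30 min at room temperature with compound (0.1% DMSO), then given luminogenic substrate: 40 μM for SSAO and MAO-A (MAO-A buffer), 4 μM for MAO-B (MAO-B buffer).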

For series [3], the target named is recombinant hMAO-B (Homo sapiens (Human), UniProt P27338). In words: MAO-B activity assay (MAO-Glo assay kit). The series is classed as biochemical. Conditions: 4 μM substrate, 30 mins pre-incubation. An outline of the steps:
as §1

Series [4] concerns the target recombinant hSSAO (Homo sapiens (Human), UniProt Q16853). Put plainly: SSAO Activity Assay (MAO-Glo assay kit). The format is biochemical. Conditions: 40 μM substrate, 30 mins pre-incubation. A digest of the protocol: as §1

Sequence of recombinant hSSAO (Q16853 whole entry): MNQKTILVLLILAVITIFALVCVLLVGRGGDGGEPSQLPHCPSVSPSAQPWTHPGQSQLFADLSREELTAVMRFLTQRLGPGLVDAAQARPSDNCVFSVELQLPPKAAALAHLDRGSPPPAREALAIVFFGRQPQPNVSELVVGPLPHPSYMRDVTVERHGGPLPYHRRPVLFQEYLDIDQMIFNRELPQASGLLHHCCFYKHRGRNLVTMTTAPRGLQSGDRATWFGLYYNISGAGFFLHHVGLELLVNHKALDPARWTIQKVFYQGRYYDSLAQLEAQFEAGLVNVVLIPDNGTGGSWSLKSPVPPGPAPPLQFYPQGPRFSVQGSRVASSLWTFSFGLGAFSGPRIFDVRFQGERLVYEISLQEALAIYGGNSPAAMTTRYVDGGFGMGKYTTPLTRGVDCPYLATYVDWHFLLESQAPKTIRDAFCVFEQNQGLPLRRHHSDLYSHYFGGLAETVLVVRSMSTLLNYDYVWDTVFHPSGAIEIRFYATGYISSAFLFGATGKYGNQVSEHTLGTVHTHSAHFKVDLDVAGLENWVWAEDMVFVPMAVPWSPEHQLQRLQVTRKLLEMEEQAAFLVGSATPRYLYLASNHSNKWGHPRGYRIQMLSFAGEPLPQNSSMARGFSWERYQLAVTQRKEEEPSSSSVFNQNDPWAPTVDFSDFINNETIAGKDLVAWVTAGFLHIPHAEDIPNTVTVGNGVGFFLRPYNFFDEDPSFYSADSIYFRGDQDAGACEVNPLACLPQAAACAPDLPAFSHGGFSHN
Sequence of recombinant hMAO-B (P27338 whole entry): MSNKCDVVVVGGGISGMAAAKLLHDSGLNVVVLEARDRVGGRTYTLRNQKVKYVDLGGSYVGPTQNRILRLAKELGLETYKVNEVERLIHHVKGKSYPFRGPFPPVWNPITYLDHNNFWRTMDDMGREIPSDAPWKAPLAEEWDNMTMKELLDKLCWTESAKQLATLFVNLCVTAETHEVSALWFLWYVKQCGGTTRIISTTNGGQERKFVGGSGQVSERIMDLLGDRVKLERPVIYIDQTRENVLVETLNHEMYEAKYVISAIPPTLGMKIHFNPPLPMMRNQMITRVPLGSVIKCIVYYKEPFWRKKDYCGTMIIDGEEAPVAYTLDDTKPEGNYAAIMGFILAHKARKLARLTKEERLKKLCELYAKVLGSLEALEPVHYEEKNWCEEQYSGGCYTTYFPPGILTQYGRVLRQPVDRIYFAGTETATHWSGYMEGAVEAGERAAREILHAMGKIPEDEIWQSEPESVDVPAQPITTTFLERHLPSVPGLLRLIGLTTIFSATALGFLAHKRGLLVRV
Sequence of recombinant hMAO-A (P21397 whole entry): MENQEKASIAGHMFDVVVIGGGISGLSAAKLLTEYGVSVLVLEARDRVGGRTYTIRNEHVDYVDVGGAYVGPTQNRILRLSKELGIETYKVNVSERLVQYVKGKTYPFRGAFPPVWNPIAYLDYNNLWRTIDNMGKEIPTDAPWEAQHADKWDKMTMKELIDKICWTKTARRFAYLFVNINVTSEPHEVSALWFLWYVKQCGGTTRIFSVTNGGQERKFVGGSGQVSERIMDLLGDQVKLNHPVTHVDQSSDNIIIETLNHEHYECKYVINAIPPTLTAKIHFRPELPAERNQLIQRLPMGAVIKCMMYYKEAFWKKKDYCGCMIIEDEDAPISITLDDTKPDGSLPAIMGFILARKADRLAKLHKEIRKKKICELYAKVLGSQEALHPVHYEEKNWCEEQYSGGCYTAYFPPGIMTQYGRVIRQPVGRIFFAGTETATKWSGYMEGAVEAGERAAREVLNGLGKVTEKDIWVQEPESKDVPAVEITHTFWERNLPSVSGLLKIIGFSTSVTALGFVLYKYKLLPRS

`CC(C)(C)NC(=O)c1ccc(OC/C(=C/F)CN)cc1.Cl` [BI 1467335 (PXS-4728A), reference compound]: the “Kpuu (mouse, t = 5 min)” value in series [1] came to 0.23.

For the molecule `CC1(C(=O)NC23CCC(CS(=O)(=O)c4ccc(OC/C(=C/F)CN)cc4)(CC2)CC3)CC1` [Compound 91, (E)-N-(4-(((4-((2-(aminomethyl)-3-fluoroallyl)oxy)phenyl)sulfonyl)methyl)bicyclo[2.2.2]octan-1-yl)-1-methylcyclopropane-1-carboxamide], the values for the IC50 in series [2], in series [3] and in series [4] were more than 30 µM, 10 to 30 µM and less than 0.02 µM, respectively. Besides, in series [1], the Kp uu at 5 min worked out at 0.077.

Take `CC(C)(C)NC(=O)C12CCC(CS(=O)(=O)c3ccc(OC/C(=C/F)CN)cc3)(CC1)CC2` [Compound 70, (E)-4-(((4-((2-(aminomethyl)-3-fluoroallyl)oxy)phenyl)sulfonyl)methyl)-N-(tert-butyl)bicyclo[2.2.2]octane-1-carboxamide]: the results for the IC50 in series [2], in series [3] and in series [4] were more than 30 µM, 10 to 30 µM and 0.02 to 0.1 µM, respectively. Moreover, the Kp uu at 5 min in series [1] was 0.01.

Regarding `NC/C(=C\F)COc1ccc(S(=O)(=O)CC23CCC(C(=O)NCC(F)(F)F)(CC2)CC3)cc1` [Compound 65, (E)-4-(((4-((2-(aminomethyl)-3-fluoroallyl)oxy)phenyl)sulfonyl)methyl)-N-(2,2,2-trifluoroethyl)bicyclo[2.2.2] octane-1-carboxamide], the IC50 in series [2] is more than 30 µM; in series [3], 10 to 30 µM; in series [4], less than 0.02 µM. Further, the Kp uu at 5 min in series [1] stood at 0.018.

With `CN(C)C(=O)C12CCC(CS(=O)(=O)c3ccc(OC/C(=C/F)CN)cc3)(CC1)CC2` [compound 62, (E)-4-(((4-((2-(aminomethyl)-3-fluoroallyl)oxy)phenyl)sulfonyl)methyl)-N,N-dimethylbicyclo[2.2.2]octane-1-carboxamide], the Kp uu at 5 min in series [1] amounted to 0.034. Besides, the IC50 was in the range of 10 to 30 µM in series [3] and 0.02 to 0.1 µM in series [4].

`CC(C)(C)NC(=O)C12CCC(CS(=O)(=O)c3ccc(OC/C(=C\F)CN)cc3)(CC1)CC2` [Compound 141, (Z)-4-(((4-((2-(aminomethyl)-3-fluoroallyl)oxy)phenyl)sulfonyl)methyl)-N-(tert-butyl)bicyclo[2.2.2]octane-1-carboxamide]: the IC50 in series [2] is more than 30 µM; in series [3] it was more than 30 µM; in series [4] it was 0.02 to 0.1 µM.

On to `CS(=O)(=O)N1CCC(CS(=O)(=O)c2ccc(OC/C(=C/F)CN)cc2)CC1` [Compound 38, (E)-3-fluoro-2-((4-(((1-(methylsulfonyl)piperidin-4-yl)methyl)sulfonyl)phenoxy)methyl) prop-2-en-1-amine], for which the IC50 is less than 10 µM in series [2], less than 10 µM in series [3] and less than 0.02 µM in series [4].

As to `NC/C(=C\F)COc1ccc(S(=O)(=O)CN2C(=O)C3(CC3)c3ccccc32)cc1` [Compound 120, (E)-1′-(((4-((2-(aminomethyl)-3-fluoroallyl)oxy)phenyl)sulfonyl)methyl)spiro[cyclopropane-1,3′-indolin]-2′one], the IC50 in series [2] was more than 30 µM; in series [3], more than 30 µM; in series [4], 0.02 to 0.1 µM.

Turning to `NC/C(=C\F)COc1ccc(S(=O)(=O)CC2CCN(C(=O)C34CC5CC(CC(C5)C3)C4)CC2)cc1` [Compound 43, (E)-adamantan-1-yl(4-(((4-((2-(aminomethyl)-3-fluoroallyl)oxy)phenyl)sulfonyl)methyl)piperidin-1-yl)methanone], the IC50 was in the range of 10 to 30 µM in series [2], 10 to 30 µM in series [3] and 0.1 to 0.5 µM in series [4].

As for `NC/C(=C\F)COc1ccc(S(=O)(=O)CC2CCN(C(=O)C3CC3)CC2)cc1` [Compound 44, (E)-(4-(((4-((2-(aminomethyl)-3-fluoroallyl)oxy)phenyl)sulfonyl)methyl)piperidin-1-yl)(cyclopropyl)methanone], the IC50 in series [2] was more than 30 µM; in series [3], more than 30 µM; in series [4], 0.02 to 0.1 µM. For the same molecule, the Kp uu at 5 min in series [1] amounted to 0.025.

Regarding `CC(C)C(=O)N(C)CS(=O)(=O)c1ccc(OC/C(=C/F)CN)cc1` [Compound 122, (E)-N-(((4-((2-(aminomethyl)-3-fluoroallyl)oxy)phenyl)sulfonyl)methyl)-N-methylisobutyramide], the results for the IC50 in series [2], in series [3] and in series [4] were more than 30 µM, less than 10 µM and 0.02 to 0.1 µM, respectively.

Consider `CC(C)C(=O)N1CCC(CS(=O)(=O)c2ccc(OC/C(=C/F)CN)cc2)CC1` [compound 37, (E)-1-(4-(((4-((2-(aminomethyl)-3-fluoroallyl)oxy)phenyl)sulfonyl)methyl)piperidin-1-yl)-2-methylpropan-1-one], for which the IC50 in series [2] is more than 30 µM; in series [3] it was more than 30 µM; in series [4] it was less than 0.02 µM.

Take `NC/C(=C\F)COc1ccc(S(=O)(=O)CC2(CN3CCOCC3)CC2)cc1` [Compound 116, (E)-3-fluoro-2-((4-(((1-(morpholinomethyl)cyclopropyl)methyl)sulfonyl)phenoxy)methyl) prop-2-en-1-amine]: the IC50 in series [2] is more than 30 µM; in series [3], more than 30 µM; in series [4], 0.02 to 0.1 µM.

For `CN(C(=O)C12CCC(CS(=O)(=O)c3ccc(OC/C(=C/F)CN)cc3)(CC1)CC2)C1CC1` [Compound 73, (E)-4-(((4-((2-(aminomethyl)-3-fluoroallyl)oxy)phenyl)sulfonyl)methyl)-N-cyclopropyl-N-methylbicyclo[2.2.2]octane-1-carboxamide], the results for the IC50 in series [2], in series [3] and in series [4] were more than 30 µM, more than 30 µM and 0.02 to 0.1 µM, respectively.
